Measurements reported in patent US5110800A, “Derivatives of erythromycylamine” (Eli Lilly and Company, priority 1989, dated 1992).

How the values were obtained:
[1] = tested on: Streptococcus sp. group D 2041; assay: MIC, standard agar-dilution assay; assay type: cell-based; conditions: Table IV; agar dilution
[2] = tested on: Staphylococcus epidermidis 222; assay: MIC, standard agar-dilution assay; assay type: cell-based; conditions: Table IV; agar dilution
[3] = tested on: Staphylococcus aureus X400; assay: MIC, standard agar-dilution assay; assay type: cell-based; conditions: Table IV; methicillin-resistant strain; inducibly erythromycin-resistant
Source text: (§1) In addition to excellent in vitro activity against erythromycin-sensitive bacteria, several members of this new series have shown in vitro activity against erythromycin-resistant strains. These include strains which are inducibly-resistant to erythromycin (S. aureus V41 and X400 and S. epidermidis EPI1) and even strains which are constitutively-resistant (S. epidermidis 270).

[4] = tested on: Staphylococcus epidermidis 270; assay: MIC, standard agar-dilution assay; assay type: cell-based; conditions: Table IV; constitutively erythromycin-resistant
Source text: as §1

[5] = tested on: Staphylococcus aureus V41; assay: MIC, standard agar-dilution assay; assay type: cell-based; conditions: Table IV; penicillin-resistant strain; inducibly erythromycin-resistant
Source text: as §1

[6] = tested on: Staphylococcus aureus X1.1; assay: MIC, standard agar-dilution assay; assay type: cell-based; conditions: Table IV; agar dilution
[7] = tested on: Streptococcus pyogenes C203; assay: MIC, standard agar-dilution assay; assay type: cell-based; conditions: Table IV; agar dilution
[8] = tested on: Streptococcus pneumoniae Park I; assay: MIC, standard agar-dilution assay; assay type: cell-based; conditions: Table IV; agar dilution
[9] = tested on: Haemophilus influenzae C.L.; assay: MIC, standard agar-dilution assay; assay type: cell-based; conditions: Table IV; ampicillin-sensitive strain
[10] = tested on: Staphylococcus aureus S13E; assay: MIC, standard agar-dilution assay; assay type: cell-based; conditions: Table IV; agar dilution
[11] = tested on: Klebsiella pneumoniae X68; assay: MIC, standard agar-dilution assay; assay type: cell-based; conditions: Table IV; agar dilution
[12] = tested on: Escherichia coli EC14; assay: MIC, standard agar-dilution assay; assay type: cell-based; conditions: Table IV; agar dilution
[13] = tested on: Streptococcus sp. group D X66; assay: MIC, standard agar-dilution assay; assay type: cell-based; conditions: Table IV; agar dilution
[14] = tested on: Staphylococcus aureus; assay: Oral ED50 against experimental infection in mice; assay type: in vivo; conditions: two doses, protects 50% of animals
Method: (§2) The new derivatives of this invention have also shown in vivo antimicrobial activity against experimental bacterial infections. When two doses of test compound were administered to mice in experimental infections, the activity observed was measured as an ED50 value [effective dose in mg/kg to protect 50% of the test animals: see Warren Wick, et al., J. Bacteriol. 81, 233-235 (1961)].

[15] = tested on: Streptococcus pneumoniae; assay: Oral ED50 against experimental infection in mice; assay type: in vivo; conditions: two doses, protects 50% of animals
Method: as §2

[16] = tested on: Streptococcus pyogenes; assay: Oral ED50 against experimental infection in mice; assay type: in vivo; conditions: two doses, protects 50% of animals
Method: as §2

[17] = tested on: Haemophilus influenzae 76; assay: MIC, standard agar-dilution assay; assay type: cell-based; conditions: Table IV; ampicillin-resistant strain

Substance: Endo- and Exo-9-Deoxo-9-[(bicyclo[2.2.1]hept-2-en-5-yl-methyl)amino]erythromycin [Compound 19]
- minimal inhibitory concentration (MIC) [1]: 8 µg/mL
- minimal inhibitory concentration (MIC) [2]: 1 µg/mL
- minimal inhibitory concentration (MIC) [3]: -- (-- = >128)
- minimal inhibitory concentration (MIC) [4]: -- (-- = >128)
- minimal inhibitory concentration (MIC) [5]: -- (-- = >128)
- minimal inhibitory concentration (MIC) [6]: 2 µg/mL
- minimal inhibitory concentration (MIC) [7]: 0.25 µg/mL
- minimal inhibitory concentration (MIC) [8]: 0.015 µg/mL
- minimal inhibitory concentration (MIC) [9]: 8 µg/mL
- minimal inhibitory concentration (MIC) [10]: 2 µg/mL
- minimal inhibitory concentration (MIC) [11]: -- (-- = >128)
- minimal inhibitory concentration (MIC) [12]: 64 µg/mL
- minimal inhibitory concentration (MIC) [13]: 1 µg/mL
- Oral ED50 [14]: > 50 mg/kg
- Oral ED50 [15]: 25.0 mg/kg
- Oral ED50 [16]: 16.6 mg/kg
- minimal inhibitory concentration (MIC) [17]: 8 µg/mL
